Results as given in PubChem BioAssay AID743384 (Vanderbilt Specialized Chemistry Center, 2014).
Calls of active or inactive are those of the source. No rule for the calls is given here.

Experiments:
[1] = target: Metabotropic glutamate receptor 7 (Rattus norvegicus) (UniProt P35400); experiment: mGlu7 positive allosteric modulators, dose response, cell-based, calcium mobilization, Galpha15 (AID 743384); conditions: mGlu7/Ga15, calcium fluorescence PAM; stronger effect = higher value
[2] = target: Metabotropic glutamate receptor 7 (Homo sapiens) (UniProt Q14831); experiment: as above; conditions: mGlu7/Ga15, calcium fluorescence PAM
Metabotropic glutamate receptor 7 (Homo sapiens), sequence (Q14831 whole entry, looked up): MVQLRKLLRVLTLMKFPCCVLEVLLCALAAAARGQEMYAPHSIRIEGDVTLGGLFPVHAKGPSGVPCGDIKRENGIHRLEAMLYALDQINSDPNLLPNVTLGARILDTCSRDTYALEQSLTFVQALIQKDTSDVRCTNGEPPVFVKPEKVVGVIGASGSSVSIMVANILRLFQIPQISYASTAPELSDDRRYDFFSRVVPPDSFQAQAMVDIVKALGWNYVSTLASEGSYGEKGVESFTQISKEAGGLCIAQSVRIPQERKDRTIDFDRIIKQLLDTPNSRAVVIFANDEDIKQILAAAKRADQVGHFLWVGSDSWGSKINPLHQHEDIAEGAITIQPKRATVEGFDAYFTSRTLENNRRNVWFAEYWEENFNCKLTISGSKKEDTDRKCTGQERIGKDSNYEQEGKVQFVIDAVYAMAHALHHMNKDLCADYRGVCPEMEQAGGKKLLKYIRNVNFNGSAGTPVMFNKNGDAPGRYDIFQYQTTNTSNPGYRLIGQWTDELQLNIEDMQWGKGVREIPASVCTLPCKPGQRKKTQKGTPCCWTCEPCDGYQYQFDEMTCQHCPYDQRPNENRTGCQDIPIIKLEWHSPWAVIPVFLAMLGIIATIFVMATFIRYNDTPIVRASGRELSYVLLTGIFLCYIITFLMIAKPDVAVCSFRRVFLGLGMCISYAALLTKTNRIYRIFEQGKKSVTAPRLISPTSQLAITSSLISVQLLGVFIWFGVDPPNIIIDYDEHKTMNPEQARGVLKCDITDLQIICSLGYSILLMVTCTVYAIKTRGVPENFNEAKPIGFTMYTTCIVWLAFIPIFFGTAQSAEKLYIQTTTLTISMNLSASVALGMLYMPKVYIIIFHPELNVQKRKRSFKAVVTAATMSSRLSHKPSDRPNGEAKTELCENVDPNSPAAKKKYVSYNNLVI

Metabotropic glutamate receptor 7 (Rattus norvegicus), sequence (P35400 whole entry, looked up): as the sequence (Q14831 whole entry, looked up) above, with R5G, A27V, N454H, S488T, A520S, D578N counted along it

Compound	% glutamate max response [1]	EC50 [2] [µM]
COC(=O)c1ccc(-n2c(C)cc(C(=O)COc3cccc(N(C)C)c3)c2C)cc1	inactive	
COC(=O)c1ccc(-n2c(C)cc(C(=O)CNc3ccc(C(=O)O)cc3)c2C)cc1	inactive	
COC(=O)c1ccc(-n2c(C)cc(C(=O)CSc3ccc(NC(C)=O)cc3)c2C)cc1		1.5
CCOc1ccc(-n2c(C)cc(C(=O)CSc3ccc(OC)cc3)c2C)cc1	inactive	
